± gives the standard deviation of the averaged measurements.
Legend:
MK2206 = compound: NC1(c2ccc(-c3nc4ccn5c(=O)[nH]nc5c4cc3-c3ccccc3)cc2)CCC1 [MK2206]; test: surviving fraction relative to DMSO-only wells; higher = less growth inhibition; settings: exposure time: 5 days
Outline: (§1)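 For each tumour cell line, log-phase cells were put into 384-well plates at 250–500 cells per well, then after 24 hours exposed continuously for five days to inhibitors at 0.5, 1, 5, 10, 50, 100, 500 and 1000 nM. Viability was assessed by CellTiter-Glo luminescence, with surviving fraction expressed relative to the median of DMSO-only wells. Lines were screened three times and retained only if replicate Pearson r exceeded 0.7 and median Z' exceeded 0.3.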

METHOTREXATE = compound: CN(Cc1cnc2nc(N)nc(N)c2n1)c1ccc(C(=O)N[C@@H](CCC(=O)O)C(=O)O)cc1 [METHOTREXATE]; test: as above; settings: exposure time: 5 days
Outline: as §1

Test System | surviving fraction (MK2206; 0.5 nM) | surviving fraction (MK2206; 1 nM) | surviving fraction (MK2206; 5 nM) | surviving fraction (MK2206; 10 nM) | surviving fraction (MK2206; 50 nM) | surviving fraction (MK2206; 100 nM) | surviving fraction (MK2206; 500 nM) | surviving fraction (MK2206; 1000 nM) | surviving fraction (METHOTREXATE; 0.5 nM) | surviving fraction (METHOTREXATE; 1 nM) | surviving fraction (METHOTREXATE; 5 nM) | surviving fraction (METHOTREXATE; 10 nM) | surviving fraction (METHOTREXATE; 50 nM) | surviving fraction (METHOTREXATE; 100 nM) | surviving fraction (METHOTREXATE; 500 nM) | surviving fraction (METHOTREXATE; 1000 nM)
C33A CERVIX | 0.919 ± 0.03 | 0.917 ± 0.026 | 1.05 ± 0.085 | 0.929 ± 0.029 | 1.01 ± 0.063 | 0.925 ± 0.058 | 0.812 ± 0.084 | 0.817 ± 0.042 | 1.01 ± 0.15 | 0.936 ± 0.025 | 0.987 ± 0.11 | 0.519 ± 0.048 | 0.592 ± 0.075 | 0.585 ± 0.05 | 0.566 ± 0.034 | 0.557 ± 0.034
CAL72 BONE | 1.1 ± 0.024 | 1.1 ± 0.11 | 1.12 ± 0.06 | 1.11 ± 0.1 | 1.12 ± 0.019 | 1.16 ± 0.096 | 1.06 ± 0.087 | 1.05 ± 0.053 | 1.04 ± 0.15 | 1.02 ± 0.13 | 1.03 ± 0.13 | 1.04 ± 0.11 | 0.641 ± 0.051 | 0.323 ± 0.061 | 0.301 ± 0.054 | 0.303 ± 0.068
G292 BONE | 0.96 ± 0.031 | 1.01 ± 0.06 | 0.997 ± 0.033 | 0.992 ± 0.031 | 0.893 ± 0.041 | 0.833 ± 0.018 | 0.748 ± 0.054 | 0.724 ± 0.026 | 1.01 ± 0.048 | 1.07 ± 0.032 | 1.04 ± 0.069 | 1.06 ± 0.042 | 1.02 ± 0.042 | 1.04 ± 0.029 | 1.017 ± 0.0058 | 1.01 ± 0.024
HUO3N1 BONE | 1.03 ± 0.072 | 1.02 ± 0.045 | 1.02 ± 0.052 | 1.02 ± 0.051 | 0.897 ± 0.044 | 0.825 ± 0.036 | 0.67 ± 0.023 | 0.64 ± 0.014 | 1.05 ± 0.032 | 1.04 ± 0.059 | 1.084 ± 0.008 | 1.08 ± 0.016 | 0.991 ± 0.041 | 0.731 ± 0.029 | 0.51 ± 0.035 | 0.51 ± 0.046
LNCAP PROSTATE | 0.974 ± 0.07 | 0.936 ± 0.075 | 0.87 ± 0.015 | 0.839 ± 0.092 | 0.529 ± 0.022 | 0.398 ± 0.0075 | 0.0787 ± 0.0097 | 0.071 ± 0.0017 | 0.965 ± 0.021 | 0.957 ± 0.042 | 0.961 ± 0.059 | 0.851 ± 0.061 | 0.575 ± 0.011 | 0.5 ± 0.024 | 0.428 ± 0.018 | 0.422 ± 0.032
SCC003 HEADNECK | 1.09 ± 0.063 | 1.08 ± 0.049 | 1.07 ± 0.053 | 1.07 ± 0.14 | 1.03 ± 0.021 | 1.09 ± 0.12 | 0.884 ± 0.05 | 0.717 ± 0.068 | 1.09 ± 0.11 | 1.1 ± 0.033 | 1.16 ± 0.03 | 0.87 ± 0.052 | 0.594 ± 0.021 | 0.541 ± 0.026 | 0.549 ± 0.042 | 0.509 ± 0.037

From the supplement of paper PMC6045584
